Results reported in patent US20200361871A1 (Enterprise Therapeutics Ltd., priority 2018, published 2020).
pEC50: −log10 of the molar value.

Target: human TMEM16A (TMEM16Aabc variant) (Homo sapiens, UniProt Q5XXA6, DEL476-501, form not given)
Test: Automated whole-cell patch clamp (Qpatch) TMEM16A potentiator assay in FRT cells stably expressing human TMEM16A
Type: cell-based
Conditions: for % Potentiation @ 3.33 μM Avg: 3.33 μM solution of test compound, percentage increase of baseline TMEM16A current; for pEC50: calculated EC50, Qpatch TMEM16A current at +70 mV
From the text: FIG. 1 is an example trace from a whole-cell patch clamp (Qpatch) TMEM16A potentiator assay as used in Biological Example 95 and illustrates the methodology used in the assay. In FIG. 1: S is Saline; V is Vehicle; #1 is Test Compound concentration #1; #2 is Test Compound concentration 2; #3 is Test Compound concentration 3; #4 is Test Compound concentration 4; #5 is Test Compound concentration #5; and R is Reference. The arrow in column V represents the baseline current, IBL. The arrows in each of the columns #1, #2, #3, #4, #5 and R represent I#[1], I#[2], I#[3], I#[4], I#[5] and I[Ref], which are the peak currents during the incubation periods for test compounds concentrations #1 to #5 and the Reference.
Fisher rat thyroid (FRT) cells stably expressing human TMEM16A (TMEM16Aabc variant; Dr Luis Galietta, Insituto Giannina, Italy) were cultured in T-75 flasks in Hams F-12 media with Coon's modification (Sigma) supplemented with 10% (v/v) foetal bovine serum, penicillin-streptomycin (10,000 U/mL/10000 μg/mL), G-418 (750 μg/mL), L-glutamine (2 mM) and sodium bicarbonate solution (7.5% v/v). At ˜90% confluence cells were harvested for experiments by detachment with a 2:1 (v/v) mixture of Detachin (BMS Biotechnology) and 0.25% (w/v) trypsin-EDTA. Cells were diluted to a density of 3.5-4.5×10^6 cells/mL with media consisting of CHO-S-SFM II (Sigma), 25 mM HEPES (Sigma) and Soy bean trypsin inhibitor (Sigma).
FRT-TMEM16A cells were whole-cell patch clamped using an automated planar patch clamp system (Qpatch, Sophion). Briefly, once high resistance (GOhm) seals were established between the cells and the planar recording array the patch was ruptured using suction pulses to establish the whole-cell recording configuration of the patch clamp technique. The assay employed the following solutions (all reagents Sigma): Intracellular solution (mM): N-methyl-D-glucamine 130, CaCl2 18.2, MgCl2 1, HEPES 10, EGTA 10, BAPTA 20, Mg-ATP 2, pH 7.25, 325 mOsm with sucrose.
Extracellular solution (mM): N-methyl-D-glucamine 130, CaCl2 2, MgCl2 1, HEPES 10, pH 7.3, 320 mOsm with sucrose.
The intracellular solution buffers intracellular calcium at levels required to give ˜20% activation of the maximal TMEM16A mediated current (EC20 for calcium ions). Cells were voltage clamped at a holding potential of −70 mV and a combined voltage step (to +70 mV)/ramp (−90 my to +90 mV) was applied at 0.05 Hz. After a period of current stabilisation test compounds, solubilised in 100% (v/v) DMSO and subsequently diluted into extracellular solution, were applied to generate a cumulative concentration response curve. Each concentration of test compound was incubated for 5 minutes before addition of the next concentration. After the final concentration was tested a supramaximal concentration of either a known active positive modulator or the TMEM16A inhibitor, CaCCinhA01 (Del La Fuente et al, 2008) was added to define the upper and lower limits of the assay.
Compound activity was quantified by measuring the increase in current upon compound addition and expressing this as a percentage increase of baseline TMEM16A current level. Percentage increases in current were determined for each concentration and the data plotted as a function of concentration using either the Qpatch software or Graphpad Prism v6.05 providing the concentration which gave 50% of its maximal effect (EC50) and maximum efficacy (percentage of baseline increase).
In FIG. 1, IBL equals baseline current, I[#1] equals the peak current during test compound concentration 1 incubation period and so on.
Peak TMEM16A current at +70 mV was plotted as a function of time over the assay period. Baseline current (IBL) was measured after a period of stabilisation. The increase in current for each compound addition was determined by taking the peak current during the incubation period and subtracting the current from the previous recording period and then expressing this as a percentage of the baseline current. […]

Chain of human TMEM16A (TMEM16Aabc variant) (Q5XXA6 with tags, fused parts or gaps DEL476-501): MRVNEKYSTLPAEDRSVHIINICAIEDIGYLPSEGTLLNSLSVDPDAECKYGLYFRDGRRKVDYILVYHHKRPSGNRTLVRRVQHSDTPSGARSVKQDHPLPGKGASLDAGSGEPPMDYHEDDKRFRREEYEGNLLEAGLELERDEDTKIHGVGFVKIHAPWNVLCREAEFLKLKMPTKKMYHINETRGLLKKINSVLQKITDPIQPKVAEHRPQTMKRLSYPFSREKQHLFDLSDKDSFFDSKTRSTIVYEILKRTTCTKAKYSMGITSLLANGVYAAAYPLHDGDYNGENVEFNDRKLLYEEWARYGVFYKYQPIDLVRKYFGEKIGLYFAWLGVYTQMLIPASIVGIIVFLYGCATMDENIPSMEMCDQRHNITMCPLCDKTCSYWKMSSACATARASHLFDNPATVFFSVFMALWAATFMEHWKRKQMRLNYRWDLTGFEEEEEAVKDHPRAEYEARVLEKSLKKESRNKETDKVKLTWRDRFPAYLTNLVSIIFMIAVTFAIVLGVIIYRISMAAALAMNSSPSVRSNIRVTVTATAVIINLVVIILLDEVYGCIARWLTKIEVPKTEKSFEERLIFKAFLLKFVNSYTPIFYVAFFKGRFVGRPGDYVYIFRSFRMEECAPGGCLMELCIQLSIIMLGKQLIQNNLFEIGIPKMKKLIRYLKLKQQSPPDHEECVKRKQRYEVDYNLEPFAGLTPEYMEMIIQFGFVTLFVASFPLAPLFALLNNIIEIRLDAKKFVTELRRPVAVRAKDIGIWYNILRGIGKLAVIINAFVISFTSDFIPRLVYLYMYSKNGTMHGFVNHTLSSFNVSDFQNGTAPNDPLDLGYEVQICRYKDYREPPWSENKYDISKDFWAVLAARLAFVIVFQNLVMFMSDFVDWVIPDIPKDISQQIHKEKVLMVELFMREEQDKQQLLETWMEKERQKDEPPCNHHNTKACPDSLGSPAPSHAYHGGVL

SMILES	% Potentiation @ 3.33 μM Avg [%]	pEC50
CC12CC(NC(=O)c3cc(NC(=O)Cc4ccccc4Cl)ccn3)(C1)C2 [Example 30.4, 4-[[2-(2-Chlorophenyl)acetyl]amino]-N-(1-methyl-3-bicyclo[1.1.1]pentanyl)pyridine-2-carboxamide]	95	6.12
COc1cccc(F)c1CC(=O)Nc1cccc(C(=O)NC(C)(C)C)c1 [Example 4.7, N-tert-Butyl-3-[[2-(2-fluoro-6-methoxy-phenyl)acetyl]amino]benzamide]	68	–
N#CC12CC(NC(=O)c3cc(NC(=O)Cc4ccccc4Cl)ccn3)(C1)C2 [Example 30.5, 4-[[2-(2-Chlorophenyl)acetyl]amino]-N-(1-cyano-3-bicyclo[1.1.1]pentanyl) pyridine-2-carboxamide]	63	–
CC(C)(C#N)NC(=O)c1cc(NC(=O)c2cccc(C(F)(F)F)n2)ccn1 [Example 83.16, N-[2-[(1-Cyano-1-methyl-ethyl)carbamoyl]-4-pyridyl]-6-(trifluoromethyl)pyridine-2-carboxamide]	60	–
Cc1noc(-c2ccccc2C(=O)Nc2ccnc(C(=O)NC(C)(C)C#N)c2)n1 [Example 83.23, N-(1-Cyano-1-methyl-ethyl)-4-[[2-(3-methyl-1,2,4-oxadiazol-5-yl)benzoyl]amino]pyridine-2-carboxamide]	-11	–
CC(C)(C)NC(=O)c1cccc(NC(=O)Cc2c[nH]c3ccccc23)c1 [Example 4.5, N-tert-Butyl-3-[[2-(1H-indol-3-yl)acetyl]amino]benzamide]	138	6.15
CC(C)(C)NC(=O)c1cc(NC(=O)Cc2cc(CN3CCOCC3)ccc2O)ccn1 [Example 70, N-tert-Butyl-4-[[2-[2-hydroxy-5-(morpholinomethyl)phenyl]acetyl]amino]pyridine-2-carboxamide]	138	–
CC(C)(C)NC(=O)c1cc(NC(=O)[C@@H]2CCc3ccccc32)ccn1 (single isomer, unassigned) [Example 21b, N-tert-Butyl-4-[[(1R)-indane-1-carbonyl]amino]pyridine-2-carboxamide or N-tert-Butyl-4-[[(1S)-indane-1-carbonyl]amino]pyridine-2-carboxamide]	164	5.97
COc1ccc(O)c(CC(=O)Nc2ccnc(C(=O)NC(C)(C)C)c2)c1 [Example 3.8b, N-tert-Butyl-4-[[2-(2-hydroxy-5-methoxy-phenyl)acetyl]amino]pyridine-2-carboxamide]	203	6.52
C#CC(C)(C)NC(=O)c1cc(NC(=O)Cc2c[nH]nc2C(F)(F)F)ccn1 [Example 5.36, N-(1,1-Dimethylprop-2-ynyl)-4-[[2-[3-(trifluoromethyl)-1H-pyrazol-4-yl]acetyl]amino] pyridine-2-carboxamide]	44	7.22
CC(C)(C)NC(=O)c1cc(NC(=O)C2CCc3c(Cl)ccc(O)c32)ccn1 (single isomer, unassigned) [Example 57a, N-tert-butyl-4-[[(1S) or (1R)-4-chloro-7-hydroxy-indane-1-carbonyl]amino]pyridine-2-carboxamide]	285	6.29
O=C(Cc1cc(Cl)ccc1O)Nc1ccnc(C(=O)NC2CCNCC2(F)F)c1 (centres unmarked) [Example 32.8, 4-[[2-(5-Chloro-2-hydroxy-phenyl)acetyl]amino]-N-(3,3-difluoro-4-piperidyl)pyridine-2-carboxamide]	79	–
CC(C)(C)NC(=O)c1cc(NC(=O)NCc2cccc(O)c2)ccn1 [Example 65.3, N-tert-Butyl-4-[(3-hydroxyphenyl)methylcarbamoylamino]pyridine-2-carboxamide]	33	–
CCOC(=O)CC(C)(C)NC(=O)c1cc(NC(=O)Cc2cc(Cl)ccc2O)ccn1 [Example 35.13, ethyl 3-[[4-[[2-(5-chloro-2-hydroxy-phenyl)acetyl]amino]pyridine-2-carbonyl]amino]-3-methyl-butanoate]	191	6.46
CC#CC(C)(C)NC(=O)c1cc(NC(=O)Cc2cc(Cl)ccc2O)ccn1 [Example 73.1, 4-[[2-(5-Chloro-2-hydroxy-phenyl)acetyl]amino]-N-(1,1-dimethylbut-2-ynyl) pyridine-2-carboxamide]	389	6.55
O=C(Cc1cc(F)ccc1O)Nc1cccc(C(=O)NC2CCCCC2)c1 [Example 35.22, N-Cyclohexyl-3-[[2-(5-fluoro-2-hydroxy-phenyl)acetyl]amino]benzamide]	104	6.66
C[C@](C#N)(CO)NC(=O)c1cc(NC(=O)Cc2cc(Cl)ccc2O)ccn1 (single isomer, unassigned) [Example 46a, 4-[[2-(5-Chloro-2-hydroxy-phenyl)acetyl]amino]-N-[(1S)-1-cyano-2-hydroxy-1-methyl-ethyl]pyridine-2-carboxamide or 4-[[2-(5-chloro-2-hydroxy-phenyl)acetyl]amino]-N-[(1R)-1-cyano-2-hydroxy-1-methyl-ethyl]pyridine-2-carboxamide]	249	6.96
CC(C)(C)NC(=O)c1cccc(NC(=O)Cc2c(O)cccc2F)c1 [Example 2.15, N-tert-Butyl-3-[[2-(2-fluoro-6-hydroxy-phenyl)acetyl]amino]benzamide]	163	6.31
CC(C)(C)NC(=O)c1cc(NC(=O)Cc2ccc3ncccc3c2)ccn1 [Example 5.29, N-tert-Butyl-4-[[2-(6-quinolyl)acetyl]amino]pyridine-2-carboxamide]	190	6.07
CCC(C)(C)NC(=O)c1cccc(NC(=O)Cc2ccc(F)cc2O)c1 [Example 2.13, N-(1,1-Dimethylpropyl)-3-[[2-(4-fluoro-2-hydroxy-phenyl)acetyl]amino] benzamide]	126	6.34
COc1cc(F)ccc1CC(=O)Nc1ccnc(C(=O)NC(C)(C)C)c1 [Example 5.2, N-tert-Butyl-4-[[2-(4-fluoro-2-methoxy-phenyl)acetyl]amino]pyridine-2-carboxamide]	63	–
C#CC(C)(C)NC(=O)c1cc(NC(=O)Cc2cccc3cc[nH]c23)ccn1 [Example 79.3, N-(1,1-Dimethylprop-2-ynyl)-4-[[2-(1H-indol-7-yl)acetyl]amino]pyridine-2-carboxamide]	64	6.62
COc1cc(C(F)(F)F)ccc1CC(=O)Nc1cccc(C(=O)NC(C)(C)C)c1 [Example 4.9, N-tert-Butyl-3-[[2-[2-methoxy-4-(trifluoromethyl)phenyl]acetyl]amino]benzamide]	60	5.33
CC(C)(C#N)NC(=O)c1cc(NC(=O)CCC2CCCCC2)ccn1 [Example 83.5, N-(1-Cyano-1-methyl-ethyl)-4-(3-cyclohexylpropanoylamino)pyridine-2-carboxamide]	185	–
CC(C)(C)c1ccc(CC(=O)Nc2ccnc(C(=O)N[C@H]3CCC[C@@H]3O)c2)cc1O [Example 93.2, 4-[2-(4-tert-butyl-3-hydroxyphenyl)acetamido]-N-[(1S,2S)-2-hydroxycyclopentyl]pyridine-2-carboxamide]	220	7.40
